One assay has as its system HCT116-WT cells. Briefly: Inhibitory activity against cell proliferation (CellTiter Glo, 6 days), HCT116-WT. The settings on record: 144 h, HCT116-WT cells, 6 days, CellTiter Glo; read-out: HCT116-WT IC50. Format: cell-based. In short, it runs like this: (§1)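 250 cells/well, McCoy's 5A + 10% FBS, o/n 37°C 5% CO2; cpd 8-pt 4-fold from 10000 nM, 6 d; CTG lum on day 7; IC50 vs DMSO.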

In another assay the test system is HCT116 MTAP KO cells. Briefly: Inhibitory activity against cell proliferation (CellTiter Glo, 6 days), HCT116 MTAP KO. Format: cell-based. Conditions: for IC50: Homo sapiens, HCT-116, 144 h, HCT116 MTAP KO cells, 6 days, CellTiter Glo, read-out: HCT116 MTAP KO IC50; for Selectivity HCT 116-WT/ HCT116 MTAP KO: ratio of IC50 HCT116-WT / HCT116 MTAP KO. In short, it runs like this: as §1
A general note: Cellular ATP, detected with luciferase, serves as a proxy for viable cell number.

The target of another assay is PRMT5-MTA (Homo sapiens, UniProt O14744). Briefly: Enzymatic inhibitory activity against PRMT5-MTA (AlphaScreen). Format: biochemical. The settings on record: read-out: IC50. An outline of the steps: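 PRMT5/[…] (1 nM) was preincubated for 30 min at room temperature with 1 µM […] and 2.5 µM SAM, then exposed to compound (10-point, 3-fold from 1000 nM) for 15 min at 23 °C. Histone H4 substrate (5 nM) was added and reacted for 45 min at 23 °C. Symmetric dimethyl-R3 H4 was detected by AlphaScreen and IC50 calculated.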

From patent publication EP4745134A1 (Jiangsu Yahong Meditech Co., Ltd., priority 2023, dated 2025) come the findings set out here.

PRMT5-MTA, sequence (O14744 whole entry): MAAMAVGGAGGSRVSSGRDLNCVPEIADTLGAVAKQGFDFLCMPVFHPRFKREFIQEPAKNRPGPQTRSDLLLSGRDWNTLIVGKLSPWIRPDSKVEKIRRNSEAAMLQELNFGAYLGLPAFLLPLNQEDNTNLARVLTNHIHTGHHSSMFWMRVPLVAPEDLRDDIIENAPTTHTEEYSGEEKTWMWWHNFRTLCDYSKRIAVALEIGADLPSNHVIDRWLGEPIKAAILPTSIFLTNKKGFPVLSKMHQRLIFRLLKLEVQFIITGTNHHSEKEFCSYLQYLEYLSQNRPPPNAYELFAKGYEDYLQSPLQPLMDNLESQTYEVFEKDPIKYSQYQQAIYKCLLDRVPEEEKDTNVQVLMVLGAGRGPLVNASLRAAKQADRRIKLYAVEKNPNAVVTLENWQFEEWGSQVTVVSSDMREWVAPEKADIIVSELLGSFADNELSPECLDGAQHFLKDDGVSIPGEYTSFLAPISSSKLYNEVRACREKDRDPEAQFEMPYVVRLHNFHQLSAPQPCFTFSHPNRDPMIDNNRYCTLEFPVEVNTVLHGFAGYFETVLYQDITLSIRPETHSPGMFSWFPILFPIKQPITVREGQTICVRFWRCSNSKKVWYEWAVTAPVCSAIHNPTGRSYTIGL
PRMT5-MTA, sequence (Q9BQA1 whole entry partner): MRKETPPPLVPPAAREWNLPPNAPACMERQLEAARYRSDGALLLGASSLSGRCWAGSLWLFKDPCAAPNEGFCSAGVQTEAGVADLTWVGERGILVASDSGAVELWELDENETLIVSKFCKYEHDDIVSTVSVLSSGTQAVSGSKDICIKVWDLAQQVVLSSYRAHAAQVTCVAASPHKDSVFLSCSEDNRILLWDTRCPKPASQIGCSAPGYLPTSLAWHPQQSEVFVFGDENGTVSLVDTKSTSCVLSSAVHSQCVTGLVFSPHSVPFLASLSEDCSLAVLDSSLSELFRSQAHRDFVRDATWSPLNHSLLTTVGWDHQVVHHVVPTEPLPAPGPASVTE

In the case of `Cc1cc2cc(C(=O)N(Cc3ccc(C(F)(F)F)cn3)N(c3ncccn3)C3CCC3)ccc2nc1N` [Example 83, 2-amino-N'-cyclobutyl-3-methyl-N'-(pyrimidin-2-yl)-N-((5-(trifluoromethyl)pyridin-2-yl)methyl)quinoline-6-carbohydrazide], the IC50 came out at 1930 nM in the assay with HCT116-WT cells, 134 nM with HCT116 MTAP KO cells and 4.5 nM on PRMT5-MTA. For the same molecule, in the assay on HCT116 MTAP KO cells, the “Selectivity HCT 116-WT/ HCT116 MTAP KO” value amounted to 14.39.

As for `Cc1cc2cc(C(=O)N(Cc3ccc(Br)cn3)N(C)c3ncccn3)ccc2nc1N` [Example 67, 2-amino-N-((5-bromopyridin-2-yl)methyl)-N',3-dimethyl-N'-(pyrimidin-2-yl)quin oline-6-carbohydrazide], the results for the IC50 in the assay on HCT116-WT cells, in the assay with HCT116 MTAP KO cells and on PRMT5-MTA were 1600 nM, 40 nM and 1.5 nM, respectively. Moreover, the “Selectivity HCT 116-WT/ HCT116 MTAP KO” value with HCT116 MTAP KO cells was 40.08.

`Cc1cc2cc(C(=O)N(Cc3ccc(C(F)(F)F)cn3)N(C)c3ncc(C#N)cn3)ccc2nc1N` [Example 58, 2-amino-N'-(5-cyanopyrimidin-2-yl)-N',3-dimethyl-N-((5-(trifluoromethyl)pyridin-2-yl)methyl)quinoline-6-carbohydrazide]: the figures for the IC50 with HCT116-WT cells, in the assay with HCT116 MTAP KO cells and on PRMT5-MTA were 3130 nM, 210 nM and 4 nM, respectively. For the same molecule, in the assay on HCT116 MTAP KO cells, the “Selectivity HCT 116-WT/ HCT116 MTAP KO” value came to 14.92.

In the case of `Cc1cc2cc(C(=O)N(Cc3ccc(-c4ccncc4)cn3)N(C)c3ncccc3F)ccc2nc1N` [Example 178, N-([3,4'-bipyridine]-6-ylmethyl)-2-amino -N'-(3-fluoropyridin-2-yl)-N',3-dimethylq uinoline-6-carbohydrazide], the IC50 worked out at 486 nM with HCT116-WT cells, 21 nM with HCT116 MTAP KO cells and 1.6 nM at PRMT5-MTA. For the same molecule, the “Selectivity HCT 116-WT/ HCT116 MTAP KO” value with HCT116 MTAP KO cells is 23.14.

For the molecule `Cc1cc2cc(C(=O)N(Cc3ccc(-c4cn[nH]c4)cn3)N(C)c3ncccn3)ccc2nc1N` [Example 200, N-((5-(1H-pyrazol-4-yl)pyridin-2-yl)methyl)-2-amino-N',3-dimethyl-N'-(pyrimidin-2-yl)quinoline-6-carbohydrazide], the results for the IC50 with HCT116-WT cells, in the assay with HCT116 MTAP KO cells and on PRMT5-MTA were 1240 nM, 36 nM and 1.7 nM, respectively. The “Selectivity HCT 116-WT/ HCT116 MTAP KO” value in the assay with HCT116 MTAP KO cells is on record as 34.36.

In the case of `Cc1cc2cc(C(=O)N(Cc3ccc(C(F)(F)F)nn3)N(C)c3ncccn3)ccc2nc1N` [Example 124, 2-amino-N',3-dimethyl-N'-(pyrimidin-2-yl)-N-((6-(trifluoromethyl)pyridazin-3-yl)methyl)quinoline-6-carbohydrazide], the values for the IC50 with HCT116-WT cells, in the assay with HCT116 MTAP KO cells and on PRMT5-MTA were 6450 nM, 220 nM and 5.4 nM, respectively. Also, the “Selectivity HCT 116-WT/ HCT116 MTAP KO” value in the assay with HCT116 MTAP KO cells came out at 29.33.

Consider `Cc1cc2cc(C(=O)N(Cc3ccc(C(F)(F)F)cn3)N(C)c3nccc4nc(C)c(C)nc34)ccc2nc1N` [Example 272, 2-amino-N'-(2,3-dimethylpyrido[3,4-b]pyrazin-5-yl)-N',3-dimethyl-N-((5-(trifluoromethyl)pyridin-2-yl)methyl)quinoline-6-carbohydrazide], for which the results for the IC50 with HCT116-WT cells, in the assay with HCT116 MTAP KO cells and at PRMT5-MTA were 3180 nM, 242 nM and 2.6 nM, respectively. In addition, the “Selectivity HCT 116-WT/ HCT116 MTAP KO” value in the assay on HCT116 MTAP KO cells is on record as 13.13.

Turning to `Cc1cc2cc(C(=O)N(Cc3ccc(-c4cnn(C(C)C)c4)cn3)N(C)c3ncccn3)ccc2nc1N` [Example 203, 2-amino-N-((5-(1-isopropyl-1H-pyrazol-4-yl)pyridin-2-yl)methyl)-N',3-dimethyl-N'-(pyrimidin-2-yl)quinoline-6-carbohydrazide], the IC50 amounted to 1030 nM in the assay with HCT116-WT cells, 40 nM in the assay with HCT116 MTAP KO cells and 1.8 nM at PRMT5-MTA. In addition, the “Selectivity HCT 116-WT/ HCT116 MTAP KO” value in the assay on HCT116 MTAP KO cells was found to be 25.65.

For `Cn1ncc2c(N)nc3cc(Cl)c(C(=O)N4CC(F)(F)CN4c4cccc(F)c4F)cc3c21` [Example 461, (4-amino-7-chloro-1-methyl-1H-pyrazolo [4,3-c]quinolin-8-yl)(2-(2,3-difluorophenyl)-4,4-difluoropyrazolidin-1-yl)methanone], the IC50 worked out at 295 nM with HCT116-WT cells, 15 nM in the assay with HCT116 MTAP KO cells and 6.8 nM at PRMT5-MTA. Further, the “Selectivity HCT 116-WT/ HCT116 MTAP KO” value in the assay on HCT116 MTAP KO cells came out at 19.67.

In the case of `CC(C)c1cc2cc(C(=O)N(Cc3ccc(C(F)(F)F)cn3)N(C)c3ncccn3)ccc2nc1N` [Example 26, 2-amino-3-isopropyl-N'-methyl-N'-(pyrimidin-2-yl)-N-((5-(trifluoromethyl)pyridin-2-yl)methyl)quinoline-6-carbohydrazide], the IC50 in the assay on HCT116-WT cells was 9200 nM; with HCT116 MTAP KO cells, 444 nM; at PRMT5-MTA, 2.4 nM. For the same molecule, the “Selectivity HCT 116-WT/ HCT116 MTAP KO” value in the assay with HCT116 MTAP KO cells was 20.73.

For `Cc1cc2cc(C(=O)N(Cc3ccc(-c4ccc(C#N)nc4)cn3)N(C)c3ncccn3)ccc2nc1N` [Example 139, 2-amino-N-((6'-cyano-[3,3'-bipyridine]-6-yl)methyl)-N',3-dimethyl-N'-(pyrimidin-2-yl)quinoline-6-carbohydrazide], the IC50 in the assay on HCT116-WT cells worked out at 281 nM; in the assay with HCT116 MTAP KO cells, 22 nM; on PRMT5-MTA, 3 nM. In the assay with HCT116 MTAP KO cells, the “Selectivity HCT 116-WT/ HCT116 MTAP KO” value was determined as 12.77.

`Cc1cc2cc(C(=O)N(Cc3ccc(C#N)cn3)N(C)c3ncccn3)ccc2nc1N` [Example 94, 2-amino-N-((5-cyanopyridin-2-yl)methyl)-N',3-dimethyl-N'-(pyrimidin-2-yl) quinoline-6-carbohydrazide]: the IC50 is 3070 nM with HCT116-WT cells, 130 nM in the assay with HCT116 MTAP KO cells and 2.3 nM on PRMT5-MTA. Also, the “Selectivity HCT 116-WT/ HCT116 MTAP KO” value with HCT116 MTAP KO cells came out at 23.60.

`Cc1cc2cc(C(=O)N(Cc3ccc(C(F)(F)F)cn3)N(C)c3ncc4[nH]ccc4n3)ccc2nc1N` [Compound 120, 2-amino-N',3-dimethyl-N'-(5H-pyrrolo[3,2-d]pyrimidin-2-yl)-N-((5-(trifluoromethyl)pyridin-2-yl)methyl)quinoline-6-carbo hydrazide]: the IC50 was 170 nM in the assay with HCT116-WT cells, 10 nM in the assay on HCT116 MTAP KO cells and 2.5 nM on PRMT5-MTA. Besides, in the assay on HCT116 MTAP KO cells, the “Selectivity HCT 116-WT/ HCT116 MTAP KO” value is listed as 17.00.

On to `COC1(C)CN(C(=O)c2cc3c(cc2C)nc(N)c2cnn(C)c23)N(c2ncccc2F)C1` (stereo not shown) [Example 428, (4-amino-1,7-dimethyl-1H-pyrazolo[4,3-c]quinolin-8-yl)(2-(3-fluoropyridin-2-yl)-4-methoxy-4-methylpyrazolin-1-yl)methanone], for which the IC50 in the assay on HCT116-WT cells was found to be 321 nM; in the assay with HCT116 MTAP KO cells it was 12 nM. In addition, in the assay with HCT116 MTAP KO cells, the “Selectivity HCT 116-WT/ HCT116 MTAP KO” value was 26.75.

As for `Cc1cc2nc(N)c3cnn(C)c3c2cc1C(=O)N1CCCN1c1ncc(-c2ccsc2)cc1F` [Example 483, (4-amino-1,7-dimethyl-1H-pyrazolo[4,3-c]quinolin-8-yl)(2-(3-fluoro-5-(thien-3-yl)pyridin-2-yl)pyrazolidin-1-yl)methanone], the IC50 in the assay on HCT116-WT cells was 4170 nM. In addition, in the assay with HCT116 MTAP KO cells, the IC50 was 100 nM and the “Selectivity HCT 116-WT/ HCT116 MTAP KO” value is given as 41.72.

`Cc1csc(-c2ccc(CN(C(=O)c3ccc4nc(N)c(C)cc4c3)N(C)c3ncccn3)nc2)n1` [Example 227, 2-amino-N',3-dimethyl-N-((5-(4-methylthiazol-2-yl)pyridin-2-yl)methyl)-N'-(pyrimidin-2-yl)quinoline-6-carbohydrazide]: the results for the IC50 in the assay with HCT116-WT cells and in the assay with HCT116 MTAP KO cells were 3420 nM and 140 nM, respectively. The “Selectivity HCT 116-WT/ HCT116 MTAP KO” value with HCT116 MTAP KO cells is listed as 24.44.

As to `Cc1cc2cc(C(=O)N(Cc3ccc(-c4cn(C)cn4)cn3)N(C)c3ncccn3)ccc2nc1N` [Example 194, 2-amino-N',3-dimethyl-N-((5-(1-methyl-1H-imidazol-4-yl)pyridin-2-yl)methyl)-N '-(pyrimidin-2-yl)quinoline-6-carbohydrazide], the values for the IC50 in the assay on HCT116-WT cells and with HCT116 MTAP KO cells were 4230 nM and 257 nM, respectively. Further, the “Selectivity HCT 116-WT/ HCT116 MTAP KO” value in the assay with HCT116 MTAP KO cells was 16.46.

For `Cc1cc2cc(C(=O)N(Cc3ccc(-c4ccc(N5CCC5)nc4)cn3)N(C)c3ncccn3)ccc2nc1N` [Example 256, 2-amino-N-((6'-(azetidin-1-yl)-[3,3'-bipyridin]-6-yl)methyl)-N',3-dimethyl-N'-(pyrimidin-2-yl)quinoline-6-carbohydrazide], the IC50 in the assay on HCT116-WT cells turned out to be 875 nM; in the assay on HCT116 MTAP KO cells, 52 nM. For the same molecule, the “Selectivity HCT 116-WT/ HCT116 MTAP KO” value in the assay with HCT116 MTAP KO cells worked out at 16.83.

Regarding `Cc1cc2cc(C(=O)N(Cc3ccc(-c4ccc(=O)[nH]c4)cn3)N(C)c3ncccn3)ccc2nc1N` [Example 143, 2-amino-N',3-dimethyl-N-((6'-oxo-1',6'-dihydro-[3,3'-bipyridine]-6-yl)methyl)-N'-(pyrimidin-2-yl)quinoline-6-carbohydrazide], the IC50 with HCT116-WT cells came to 3360 nM; in the assay with HCT116 MTAP KO cells, 192 nM. Also, the “Selectivity HCT 116-WT/ HCT116 MTAP KO” value in the assay with HCT116 MTAP KO cells was 17.49.

For the molecule `Cc1cc2nc(N)c3cnn(C)c3c2cc1C(=O)N1CCCN1c1ncc(-c2cnn(C(F)(F)F)c2)cc1F` [Example 480, (4-amino-1,7-dimethyl-1H-pyrazolo[4,3-c]quinolin-8-yl)(2-(3-fluoro-5-(1-(trifluor omethyl)-1H-pyrazol-4-yl)pyridin-2-yl)pyrazolidin-1-yl)methanone], the 50% inhibitory concentration (IC50) in the assay with HCT116-WT cells turned out to be 1770 nM. Besides, in the assay with HCT116 MTAP KO cells, the IC50 amounted to 55 nM and the “Selectivity HCT 116-WT/ HCT116 MTAP KO” value worked out at 32.16.

A word on the IC50: it is the concentration at which inhibition is half-maximal.
